{
  "source": "patent US20210154122A1",
  "about": "“TOPICAL COMPOSITION” (OTSUKA PHARMACEUTICAL CO., LTD., priority 2017, published 2021)",
  "origin": "cited, not measured here",
  "tested_on": "keratocytes",
  "settings": "keratocytes treated with uridine; disclosed in Patent Document 5 (JP 2009-517380 A)",
  "data": [
    {"smiles": "O=c1ccn([C@@H]2O[C@H](CO)[C@@H](O)[C@H]2O)c(=O)[nH]1", "note": "[uridine]", "values": [
      {"measurement": "hyaluronic acid production", "value": "promoted"}
    ]}
  ]
}
